From patent publication US20080132710A1, “ATRASENTAN HYDROCHLORIDE CRYSTALLINE FORM 2” (ABBOTT LABORATORIES, priority 2006, published 2008)
Structures can show the parent of a compound that is named as a salt.

Assay: Crystalline form of atrasentan hydrochloride found in solvents over time (conversion to Form 2) at 25° C.
Type: physicochemical
Design: key: 1, 2 and 3 mean Atrasentan Hydrochloride Crystalline Forms 1, 2 and 3, respectively.; 1, 2 and 3 mean Atrasentan Hydrochloride Crystalline Forms 1, 2 and 3, respectively.; 1, 2 and 3 mean Atrasentan Hydrochloride Crystalline Forms 1, 2 and 3, respectively
Procedure: Examples of representative solvents that are useful for converting a particular crystalline form of atrasentan hydrochloride to Atrasentan Hydrochloride Crystalline Form 2 having substantial crystalline purity at 25° C. are shown in TABLE 2.

SMILES: CCCCN(CCCC)C(=O)CN1C[C@H](c2ccc3c(c2)OCO3)[C@@H](C(=O)O)[C@@H]1c1ccc(OC)cc1 [atrasentan hydrochloride, (2R,3R,4S)-(+)-2-(4-methoxyphenyl)-4-(1,3-benzodioxol-5-yl)-1-(N,N-di(n-butyl)aminocarbonylmethyl)pyrrolidine-3-carboxylic acid]
- crystalline form present (0.1M HCl, week 1): 1
- crystalline form present (0.1M HCl, week 2): 1
- crystalline form present (0.1M HCl, week 4): 1
- crystalline form present (0.1M HCl, week 9): 2
- crystalline form present (0.1M HCl, week 16): 2
- crystalline form present (IPA (isopropyl alcohol), week 1): 1
- crystalline form present (IPA (isopropyl alcohol), week 2): 1
- crystalline form present (IPA (isopropyl alcohol), week 4): 2
- crystalline form present (IPA (isopropyl alcohol), week 9): 2
- crystalline form present (IPA (isopropyl alcohol), week 16): 2
- crystalline form present (PEG 400 (polyethylene glycol), week 1): 1
- crystalline form present (PEG 400 (polyethylene glycol), week 2): 1
- crystalline form present (PEG 400 (polyethylene glycol), week 4): 1
- crystalline form present (PEG 400 (polyethylene glycol), week 9): 1
- crystalline form present (PEG 400 (polyethylene glycol), week 16): 2
- crystalline form present (acetone, week 1): 2
- crystalline form present (acetone, week 2): 2
- crystalline form present (acetone, week 4): 2
- crystalline form present (acetone, week 9): 2
- crystalline form present (acetone, week 16): 2
- crystalline form present (ethanol, week 1): 2
- crystalline form present (ethanol, week 2): 2
- crystalline form present (ethanol, week 4): 2
- crystalline form present (ethanol, week 9): 2
- crystalline form present (ethanol, week 16): 2
- crystalline form present (ethyl acetate, week 1): 1
- crystalline form present (ethyl acetate, week 2): 1
- crystalline form present (ethyl acetate, week 4): 1
- crystalline form present (ethyl acetate, week 9): 2
- crystalline form present (ethyl acetate, week 16): 2
- crystalline form present (nitromethane, week 1): 3
- crystalline form present (nitromethane, week 2): 3
- crystalline form present (nitromethane, week 4): 3
- crystalline form present (nitromethane, week 9): 3
- crystalline form present (nitromethane, week 16): 2
